Test results taken from ChEMBL document CHEMBL5096178, “Synthesis and Biological Evaluation of Natural-Product-Inspired, Aminoalkyl-Substituted 1-Benzopyrans as Novel Antiplasmodial Agents” (J Med Chem, 2021).

Legend:
[1] = system: Trypanosoma brucei rhodesiense; assay: Antiprotozoal activity against Trypanosoma brucei rhodesiense STIB 900 bloodstream trypomastigote assessed as parasite growth inhibition incubated for 70 hrs by resazurin dye based assay; type: functional, organism-based; settings: STIB 900, 70 h
[2] = Selectivity index, ratio of IC50 for rat L6 cells to IC50 for Trypanosoma cruzi Tulahuen C4 intracellular amastigote infected in rat L6 cells; type: toxicity, cell-based; settings: read-out: Ratio IC50
Trypanosoma cruzi = assay: Antiprotozoal activity against Trypanosoma cruzi Tulahuen C4 intracellular amastigote infected in rat L6 cells assessed as parasite growth inhibition incubated for 96 hrs in presence of CPRG/Nonidet by photometry; type: functional, organism-based; settings: Tulahuen C4, L6, 96 h
[3] = Selectivity index, ratio of IC50 for rat L6 cells to IC50 for Leishmania donovani MHOM/ET/67/L82 axenic amastigote; type: toxicity; settings: read-out: Ratio IC50
Plasmodium falciparum = assay: Antiprotozoal activity against erythrocytic stage Plasmodium falciparum NF54 assessed as parasite growth inhibition incubated for 48 hrs by [3H]hypoxanthine incorporation assay; type: functional, organism-based
[4] = Cytotoxicity against rat L6 cells assessed as cell growth inhibition incubated for 70 hrs by Alamar Blue staining based […]; type: toxicity
[5] = Selectivity index, ratio of IC50 for rat L6 cells to IC50 for Trypanosoma brucei rhodesiense STIB 900 bloodstream trypomastigote; type: toxicity; settings: read-out: Ratio IC50
[6] = Selectivity index, ratio of IC50 for rat L6 cells to IC50 for erythrocytic stage Plasmodium falciparum NF54; type: toxicity; settings: read-out: Ratio IC50
Leishmania donovani = assay: Antiprotozoal activity against Leishmania donovani MHOM/ET/67/L82 axenic amastigote assessed as parasite growth inhibition incubated for resazurin dye based fluorometry; type: functional, organism-based

CC1(C)CCc2cc(C(O)CNCc3ccccc3)c(O)cc2O1 (centres undefined)
IC50 [1]: 6.4 µM | selectivity ratio [2]: 1 | IC50 (Trypanosoma cruzi): 48 µM | selectivity ratio [3]: 0.9 | IC50 (Plasmodium falciparum): 0.1 µM | IC50 at 70 h [4]: 46 µM | selectivity ratio [5]: 7 | selectivity ratio [6]: 460 | IC50 (Leishmania donovani): 54 µM

CC1(C)CCc2cc(CNCCc3ccccc3)c3c(c2O1)CCC(C)(C)O3
IC50 [1]: 0.7 µM | selectivity ratio [2]: 0.4 | IC50 (Trypanosoma cruzi): 9.1 µM | selectivity ratio [3]: 0.3 | IC50 (Plasmodium falciparum): 0.24 µM | IC50 at 70 h [4]: 3.5 µM | selectivity ratio [5]: 5 | selectivity ratio [6]: 15 | IC50 (Leishmania donovani): 12 µM

CC1(C)CCc2cc(CNCCCCc3ccccc3)c3c(c2O1)CCC(C)(C)O3
IC50 [1]: 0.54 µM | selectivity ratio [2]: 0.6 | IC50 (Trypanosoma cruzi): 5.4 µM | selectivity ratio [3]: 0.7 | IC50 (Plasmodium falciparum): 0.21 µM | IC50 at 70 h [4]: 3.2 µM | selectivity ratio [5]: 6 | selectivity ratio [6]: 15 | IC50 (Leishmania donovani): 4.9 µM

CC1(C)CCc2c(ccc(CNCCCc3ccccc3)c2O)O1
IC50 [1]: 3.4 µM | selectivity ratio [2]: 0.9 | IC50 (Trypanosoma cruzi): 31 µM | selectivity ratio [3]: 0.5 | IC50 (Plasmodium falciparum): 0.15 µM | IC50 at 70 h [4]: 27 µM | selectivity ratio [5]: 8 | selectivity ratio [6]: 180 | IC50 (Leishmania donovani): 52 µM

CC1(C)C=Cc2cc(CNCCCCc3ccccc3)c(O)cc2O1
IC50 [1]: 1.09 µM | selectivity ratio [2]: 1 | IC50 (Trypanosoma cruzi): 17 µM | selectivity ratio [3]: 0.8 | IC50 (Plasmodium falciparum): 0.079 µM | IC50 at 70 h [4]: 19 µM | selectivity ratio [5]: 17 | selectivity ratio [6]: 241 | IC50 (Leishmania donovani): 25 µM

CC1(C)CCc2cc(CNCCc3ccccc3)c(O)cc2O1
IC50 (Plasmodium falciparum): 0.081 µM | IC50 at 70 h [4]: 43 µM | selectivity ratio [6]: 531

CC1(C)CCc2cc(CNCc3ccccc3)c(O)cc2O1
IC50 (Plasmodium falciparum): 0.099 µM | IC50 at 70 h [4]: 22 µM | selectivity ratio [6]: 222

CC1(C)CCc2cc(CNCc3ccccc3)c3c(c2O1)CCC(C)(C)O3
IC50 [1]: 1.4 µM | selectivity ratio [2]: 0.6 | IC50 (Trypanosoma cruzi): 9.5 µM | selectivity ratio [3]: 0.4 | IC50 (Plasmodium falciparum): 0.47 µM | IC50 at 70 h [4]: 5.6 µM | selectivity ratio [5]: 4 | selectivity ratio [6]: 12 | IC50 (Leishmania donovani): 13 µM

CC1(C)CCc2c(ccc(CNCCCCc3ccccc3)c2O)O1
IC50 [1]: 3.4 µM | selectivity ratio [2]: 0.8 | IC50 (Trypanosoma cruzi): 18 µM | selectivity ratio [3]: 0.4 | IC50 (Plasmodium falciparum): 0.18 µM | IC50 at 70 h [4]: 15 µM | selectivity ratio [5]: 4 | selectivity ratio [6]: 83 | IC50 (Leishmania donovani): 42 µM

CC1(C)C=Cc2cc(CNCCc3ccccc3)c(O)cc2O1
IC50 [1]: 0.67 µM | selectivity ratio [2]: 2 | IC50 (Trypanosoma cruzi): 28 µM | selectivity ratio [3]: 0.4 | IC50 (Plasmodium falciparum): 0.076 µM | IC50 at 70 h [4]: 46 µM | selectivity ratio [5]: 69 | selectivity ratio [6]: 605 | IC50 (Leishmania donovani): 105 µM

CC1(C)CCc2cc(CNCCCCc3ccccc3)c(O)cc2O1
IC50 [1]: 0.46 µM | selectivity ratio [2]: 1 | IC50 (Trypanosoma cruzi): 13 µM | selectivity ratio [3]: 0.1 | IC50 (Plasmodium falciparum): 0.07 µM | IC50 at 70 h [4]: 15 µM | selectivity ratio [5]: 33 | selectivity ratio [6]: 214 | IC50 (Leishmania donovani): 138 µM

CC1(C)CCc2c(ccc(CNCc3ccccc3)c2O)O1
IC50 [1]: 22 µM | selectivity ratio [2]: 1 | IC50 (Trypanosoma cruzi): 57 µM | selectivity ratio [3]: 1 | IC50 (Plasmodium falciparum): 0.053 µM | IC50 at 70 h [4]: 60 µM | selectivity ratio [5]: 3 | selectivity ratio [6]: 1130 | IC50 (Leishmania donovani): 52 µM

CC1(C)C=Cc2cc(CNCCCc3ccccc3)c(O)cc2O1
IC50 [1]: 1.01 µM | selectivity ratio [2]: 1 | IC50 (Trypanosoma cruzi): 28 µM | selectivity ratio [3]: 0.7 | IC50 (Plasmodium falciparum): 0.081 µM | IC50 at 70 h [4]: 28 µM | selectivity ratio [5]: 28 | selectivity ratio [6]: 346 | IC50 (Leishmania donovani): 43 µM

CC1(C)CCc2cc(C(O)CNCCCc3ccccc3)c(O)cc2O1 (centres undefined)
IC50 [1]: 5.3 µM | selectivity ratio [2]: 0.9 | IC50 (Trypanosoma cruzi): 28 µM | selectivity ratio [3]: 0.7 | IC50 (Plasmodium falciparum): 0.017 µM | IC50 at 70 h [4]: 25 µM | selectivity ratio [5]: 5 | selectivity ratio [6]: 1470 | IC50 (Leishmania donovani): 36 µM
